Test results published in US11186577B2, “Vasopressin receptor antagonists and products and methods related thereto” (BlackThorn Therapeutics, Inc., priority 2017, dated 2021).

What follows are compounds tested against human Arginine Vasopressin Receptor 1a (AVPR1a) (Homo sapiens (Human), UniProt P37288) (assay: Vasopressin V1A receptor antagonist assay (AVP-evoked calcium, FLIPR, CHO-AVPR1a cells)). Conditions: not given.
Type: cell-based
Method: The purpose of this assay was to determine the inhibitory effect of synthesized compounds on the Vasopressin V1a receptor. The assay as performed in Chinese Hamster Ovary (CHO) cells expressing the human Arginine Vasopressin Receptor 1a (AVPR1a). Arginine Vasopressin (AVP) evokes an increase in intracellular calcium in CHO-AVPR1a cells which is measured in a fluorescence assay on the FLIPR^TETRA using calcium sensitive dyes. Test compounds were assessed for their ability to affect the magnitude of the response to AVP, with antagonists showing a concentration-dependent reduction in the AVP-mediated fluorescence. Compounds were tested in duplicate in a 10-point, 1:3 dilution series starting at a nominal concentration of 3 μM in the assay.
CHO-AVPR1a cells were maintained in routine culture in T175 Flasks at 37° C., 5% CO2. The growth medium consists of Ham's F12 media supplemented with 10% v/v fetal bovine serum, 1× non-essential amino acids, and 0.4 mg/ml Geneticin G418.
On day one, cells were harvested from T175 flasks when they are 80-90% confluent by first washing the cell monolayer with PBS and then dissociated using trypsin 0.05%/EDTA (3 mL for a T175 Flask). The flasks were incubated at room temperature until the cells detached. To the cell suspension, 10 ml of growth media was added and the cell density determined using the Vi-Cell automated cell counter. The cells were spun at 1000 rpm for 3 minutes, then the supernatant was carefully removed and discarded. The cell pellet was re-suspended at 6.0e^5 cells/ml in growth media. 25 μL of cells in growth media was dispensed into each well (15,000 cells per well) of a poly-D-lysine coated black, clear bottomed, 384-well plate. The plates were incubated at 37° C., 5% CO2 overnight.
At the start of each assay day, the potency of AVP was assessed and an EC80 concentration determined for subsequent compound profiling. Assays were performed using a two-step addition protocol on the FLIPR^TETRA; first addition of 5 μl of control or test compound at 10× final in assay buffer with 15 min incubation at 37° C., 5% CO2 followed by 10 μl of AVP at 6× final concentration in assay buffer. […] The assay buffer consisted of HBSS (+Ca/+Mg) supplemented with 20 mM HEPES, and for the preparation of the AVP agonist only, 0.1% w/v bovine serum albumin. The assay was initiated by the removal of growth media from the cells and replacement with 45 μl of Calcium-6 dye (Molecular Devices) prepared at 1× in assay buffer. Cells are loaded with dye for 60-90 min at 37° C., 5% CO2 before initiation of the FLIPR^TETRA protocol. […] At the end of the incubation period, 10 μl of AVP in assay buffer containing 0.1% BSA was added at the previously determined EC80 concentration.

Sequence of human Arginine Vasopressin Receptor 1a (AVPR1a) (P37288 whole entry): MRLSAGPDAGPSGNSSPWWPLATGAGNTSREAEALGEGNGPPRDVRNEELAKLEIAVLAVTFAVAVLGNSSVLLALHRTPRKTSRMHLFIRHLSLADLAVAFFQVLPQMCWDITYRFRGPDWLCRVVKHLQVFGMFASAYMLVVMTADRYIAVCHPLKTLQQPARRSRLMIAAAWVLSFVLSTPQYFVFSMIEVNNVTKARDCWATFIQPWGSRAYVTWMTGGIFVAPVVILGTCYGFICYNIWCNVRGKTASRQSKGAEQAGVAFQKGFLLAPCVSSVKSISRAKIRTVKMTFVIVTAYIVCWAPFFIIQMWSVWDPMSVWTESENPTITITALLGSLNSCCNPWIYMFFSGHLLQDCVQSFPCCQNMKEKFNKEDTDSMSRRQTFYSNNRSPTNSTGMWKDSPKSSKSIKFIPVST

Question: With `O=C1OCC2c3nnc(C4CC5(C4)CN(c4ncccn4)C5)n3-c3ccc(Cl)cc3CN12` (stereo not shown) [compound 198] as the compound, how does the IC50 read?
Answer: 100 to 500 nM

Question: Which IC50 does the source give for `CN1Cc2cc(Cl)ccc2-n2c(nnc2C2CC3(C2)CN(c2nn(C)c4ncccc24)C3)C1` [compound 231] here?
Answer: 100 to 500 nM

Question: For `Cc1cnc(N2CC3(CC(c4nnc5n4-c4ccc(Cl)cc4CN(C4CC4)C5)C3)C2)nc1` [compound 234], which IC50 is on record?
Answer: 100 to 500 nM

Question: For `Cc1cnc(N2CC3(CC(c4nnc5n4-c4ccc(Cl)cc4CN(C)C5)C3)C2)nc1` [compound 239], which IC50 is on record?
Answer: 100 to 500 nM

Question: `CN1Cc2cc(Cl)ccc2-n2c(nnc2C2CC3(C2)CN(c2ccncn2)C3)C1` [compound 243] was tested. Which IC50 did it give?
Answer: 100 to 500 nM

Question: `Cc1cncnc1N1CC2(CC(c3nnc4n3-c3ccc(Cl)cc3CN(C)C4)C2)C1` [compound 251] was tested. Which IC50 did it give?
Answer: 100 to 500 nM

Question: Which IC50 does the source give for `Cc1cnc(N2CC3(CC(c4nnc5n4-c4ccc(Cl)cc4CN(C4(C)CC4)C5)C3)C2)nc1` [compound 253] here?
Answer: 100 to 500 nM

Question: With `CC1(N2Cc3cc(Cl)ccc3-n3c(nnc3C3CC4(C3)CN(c3ccncn3)C4)C2)CC1` [compound 254] as the compound, how does the IC50 read?
Answer: 100 to 500 nM

Question: For `CN1Cc2cc(Cl)ccc2-n2c(nnc2C2CC3(C2)CN(c2nccc4c2ncn4C)C3)C1` [compound 257], which IC50 is on record?
Answer: 500 to 1000 nM

Question: For `Cc1ccc(N2CC3(CC(c4nnc5n4-c4ccc(Cl)cc4CN(C4(C)CC4)C5)C3)C2)nc1` [compound 265], which IC50 is on record?
Answer: 100 to 500 nM

Question: With `Cc1nc(N2CC3(CC(c4nnc5n4-c4ccc(Cl)cc4CN(C)C5)C3)C2)no1` [compound 266, 3-(6-(8-chloro-5-methyl-5,6-dihydro-4H-benzo[f][1,2,4]triazolo[4,3-a][1,4]diazepin-1-yl)-2-azaspiro[3.3]heptan-2-yl)-5-methyl-1,2,4-oxadiazole] as the compound, how does the IC50 read?
Answer: 500 to 1000 nM

Question: `Cc1nc(N2CC3(CC(c4nnc5n4-c4ccc(Cl)cc4CN(C4CC4)C5)C3)C2)no1` [compound 268, 3-(6-(8-chloro-5-cyclopropyl-5,6-dihydro-4H-benzo[f][1,2,4]triazolo[4,3-a][1,4]diazepin-1-yl)-2-azaspiro[3.3]heptan-2-yl)-5-methyl-1,2,4-oxadiazole] was tested. Which IC50 did it give?
Answer: 100 to 500 nM

Question: With `Clc1ccc2c(c1)CN(C1CC1)Cc1nnc(C3CC4(C3)CN(c3noc(C5CC5)n3)C4)n1-2` [compound 269] as the compound, how does the IC50 read?
Answer: 500 to 1000 nM

Question: How did the IC50 turn out when `Cc1nccc(N2CC3(CC(c4nnc5n4-c4ccc(Cl)cc4CN(C4CC4)C5)C3)C2)n1` [compound 270] was run?
Answer: 100 to 500 nM

Same assay, conditions: read-out: V1a IC50

Question: With `CCOC(=O)N1Cc2cc(Cl)ccc2-n2c(C3CC4(C3)CN(c3nccc(C(F)(F)F)n3)C4)nnc2C1C` (stereo not shown) [compound 190] as the compound, how does the IC50 read?
Answer: < 100 nM

Question: With `Cc1ccnc(N2CC3(CC(c4nnc5n4-c4ccc(Cl)cc4CN(C4CC4)C5)C3)C2)c1` [compound 217, 8-chloro-5-cyclopropyl-1-(2-(4-methylpyridin-2-yl)-2-azaspiro[3.3]heptan-6-yl)-5,6-dihydro-4H-benzo[f][1,2,4]triazolo[4,3-a][1,4]diazepine] as the compound, how does the IC50 read?
Answer: < 100 nM

Question: How did the IC50 turn out when `Clc1ccc2c(c1)CN(C1CC1)Cc1nnc(C3CC4(C3)CN(c3cnccn3)C4)n1-2` [compound 219] was run?
Answer: < 100 nM

Question: With `Cc1cncc(N2CC3(CC(c4nnc5n4-c4ccc(Cl)cc4CN(C4CC4)C5)C3)C2)n1` [compound 221] as the compound, how does the IC50 read?
Answer: < 100 nM

Question: How did the IC50 turn out when `Cc1nccnc1N1CC2(CC(c3nnc4n3-c3ccc(Cl)cc3CN(C3CC3)C4)C2)C1` [compound 222] was run?
Answer: < 100 nM

Question: Which IC50 does the source give for `Cc1ccc(N2CC3(CC(c4nnc5n4-c4ccc(Cl)cc4CN(C4CC4)C5)C3)C2)nc1` [compound 227] here?
Answer: < 100 nM

Question: How did the IC50 turn out when `N#Cc1cccc(N2CC3(CC(c4nnc5n4-c4ccc(Cl)cc4CN(C4CC4)C5)C3)C2)n1` [compound 228] was run?
Answer: < 100 nM

Question: For `N#Cc1ccnc(N2CC3(CC(c4nnc5n4-c4ccc(Cl)cc4CN(C4CC4)C5)C3)C2)c1` [compound 232], which IC50 is on record?
Answer: < 100 nM

Question: For `Clc1ccc2c(c1)CN(C1CC1)Cc1nnc(C3CC4(C3)CN(c3ccncn3)C4)n1-2` [compound 233], which IC50 is on record?
Answer: < 100 nM

Question: With `Cc1cc(N2CC3(CC(c4nnc5n4-c4ccc(Cl)cc4CN(C4CC4)C5)C3)C2)ncc1F` [compound 235] as the compound, how does the IC50 read?
Answer: < 100 nM

Question: For `CN1Cc2cc(Cl)ccc2-n2c(nnc2C2CC3(C2)CN(c2ncc(F)cn2)C3)C1` [compound 236, 8-chloro-5-methyl-1-(2-(5-fluoropyrimidin-2-yl)-2-azaspiro[3.3]heptan-6-yl)-5,6-dihydro-4H-benzo[f][1,2,4]triazolo[4,3-a][1,4]diazepine], which IC50 is on record?
Answer: < 100 nM

Question: With `Cc1cncc(N2CC3(CC(c4nnc5n4-c4ccc(Cl)cc4CN(C)C5)C3)C2)n1` [compound 237] as the compound, how does the IC50 read?
Answer: < 100 nM

Question: `CN1Cc2cc(Cl)ccc2-n2c(nnc2C2CC3(C2)CN(c2ncncc2F)C3)C1` [compound 238] was tested. Which IC50 did it give?
Answer: < 100 nM

Question: How did the IC50 turn out when `Cc1nc(N2CC3(CC(c4nnc5n4-c4ccc(Cl)cc4CN(C)C5)C3)C2)ncc1F` [compound 240] was run?
Answer: < 100 nM

Question: For `Cc1ccnc(N2CC3(CC(c4nnc5n4-c4ccc(Cl)cc4CN(C)C5)C3)C2)c1` [compound 241, 8-chloro-5-methyl-1-(2-(4-methylpyridin-2-yl)-2-azaspiro[3.3]heptan-6-yl)-5,6-dihydro-4H-benzo[f][1,2,4]triazolo[4,3-a][1,4]diazepine], which IC50 is on record?
Answer: < 100 nM

Question: `Cc1nccnc1N1CC2(CC(c3nnc4n3-c3ccc(Cl)cc3CN(C3(C)CC3)C4)C2)C1` [compound 244] was tested. Which IC50 did it give?
Answer: < 100 nM

Question: For `Cc1cc(N2CC3(CC(c4nnc5n4-c4ccc(Cl)cc4CN(C4(C)CC4)C5)C3)C2)ncc1F` [compound 245], which IC50 is on record?
Answer: < 100 nM

Question: How did the IC50 turn out when `O=C(NC1CC1)N1Cc2cc(Cl)ccc2-n2c(nnc2C2CC3(C2)CN(c2ccc(F)cn2)C3)C1` [compound 246, 8-chloro-N-cyclopropyl-1-(2-(5-fluoropyridin-2-yl)-2-azaspiro[3.3]heptan-6-yl)-4H-benzo[f][1,2,4]triazolo[4,3-a][1,4]diazepine-5(6H)-carboxamide] was run?
Answer: < 100 nM

Question: Which IC50 does the source give for `Fc1cncnc1N1CC2(CC(c3nnc4n3-c3ccc(Cl)cc3CN(C3CC3)C4)C2)C1` [compound 247] here?
Answer: < 100 nM

Question: For `N#Cc1ccnc(N2CC3(CC(c4nnc5n4-c4ccc(Cl)cc4CN(C4CC4)C5)C3)C2)n1` [compound 248], which IC50 is on record?
Answer: < 100 nM

Question: With `COc1cc(N2CC3(CC(c4nnc5n4-c4ccc(Cl)cc4CN(C4CC4)C5)C3)C2)ncc1F` [compound 249] as the compound, how does the IC50 read?
Answer: < 100 nM

Question: Which IC50 does the source give for `Cn1nc(N2CC3(CC(c4nnc5n4-c4ccc(Cl)cc4CN(C4CC4)C5)C3)C2)c2cccnc21` [compound 250] here?
Answer: < 100 nM

Question: With `Cc1cc(N2CC3(CC(c4nnc5n4-c4ccc(Cl)cc4CN(C)C5)C3)C2)ncc1F` [compound 252] as the compound, how does the IC50 read?
Answer: < 100 nM

Question: Which IC50 does the source give for `CN1Cc2cc(Cl)ccc2-n2c(nnc2C2CC3(C2)CN(c2noc4ccccc24)C3)C1` [compound 256] here?
Answer: < 100 nM

Question: With `CN1Cc2cc(Cl)ccc2-n2c(nnc2C2CC3(C2)CN(c2nc4cnccc4n2C)C3)C1` [compound 258] as the compound, how does the IC50 read?
Answer: > 1000 nM

Question: `Cc1nc(N2CC3(CC(c4nnc5n4-c4ccc(Cl)cc4CN(C4(C)CC4)C5)C3)C2)ccc1F` [compound 260] was tested. Which IC50 did it give?
Answer: < 100 nM

Question: With `CC1(N2Cc3cc(Cl)ccc3-n3c(nnc3C3CC4(C3)CN(c3ncc(F)cn3)C4)C2)CC1` [compound 261] as the compound, how does the IC50 read?
Answer: < 100 nM

Question: For `CC1(N2Cc3cc(Cl)ccc3-n3c(nnc3C3CC4(C3)CN(c3cccc(C#N)n3)C4)C2)CC1` [compound 262], which IC50 is on record?
Answer: < 100 nM

Question: `CC1(N2Cc3cc(Cl)ccc3-n3c(nnc3C3CC4(C3)CN(c3nccc(C#N)n3)C4)C2)CC1` [compound 263] was tested. Which IC50 did it give?
Answer: < 100 nM

Question: Which IC50 does the source give for `CC1(N2Cc3cc(Cl)ccc3-n3c(nnc3C3CC4(C3)CN(c3ncccn3)C4)C2)CC1` [compound 264] here?
Answer: < 100 nM

Question: How did the IC50 turn out when `CN1Cc2cc(Cl)ccc2-n2c(nnc2C2CC3(C2)CN(c2noc(C4CC4)n2)C3)C1` [compound 267] was run?
Answer: > 1000 nM

Question: How did the IC50 turn out when `FC(F)(F)Oc1cccnc1N1CC2(CC(c3nnc4n3-c3ccc(Cl)cc3CN(C3CC3)C4)C2)C1` [compound 272] was run?
Answer: < 100 nM

Question: Which IC50 does the source give for `Cc1ccc(F)c(N2CC3(CC(c4nnc5n4-c4ccc(Cl)cc4CN(C4CC4)C5)C3)C2)n1` [compound 273] here?
Answer: < 100 nM

Question: With `COc1ccc(C)nc1N1CC2(CC(c3nnc4n3-c3ccc(Cl)cc3CN(C3CC3)C4)C2)C1` [compound 274] as the compound, how does the IC50 read?
Answer: < 100 nM

Question: How did the IC50 turn out when `Cc1cc(C)nc(N2CC3(CC(c4nnc5n4-c4ccc(Cl)cc4CN(C4CC4)C5)C3)C2)c1` [compound 275] was run?
Answer: < 100 nM
